{"source": "patent US6982271B1", "about": "“Tropane analogs” (Georgetown University, priority 1999, dated 2006)"}
{"biological_target": "serotonin transporter (5-HTT) (Homo sapiens, UniProt P31645)", "sequence (P31645 whole entry, species assumed)": "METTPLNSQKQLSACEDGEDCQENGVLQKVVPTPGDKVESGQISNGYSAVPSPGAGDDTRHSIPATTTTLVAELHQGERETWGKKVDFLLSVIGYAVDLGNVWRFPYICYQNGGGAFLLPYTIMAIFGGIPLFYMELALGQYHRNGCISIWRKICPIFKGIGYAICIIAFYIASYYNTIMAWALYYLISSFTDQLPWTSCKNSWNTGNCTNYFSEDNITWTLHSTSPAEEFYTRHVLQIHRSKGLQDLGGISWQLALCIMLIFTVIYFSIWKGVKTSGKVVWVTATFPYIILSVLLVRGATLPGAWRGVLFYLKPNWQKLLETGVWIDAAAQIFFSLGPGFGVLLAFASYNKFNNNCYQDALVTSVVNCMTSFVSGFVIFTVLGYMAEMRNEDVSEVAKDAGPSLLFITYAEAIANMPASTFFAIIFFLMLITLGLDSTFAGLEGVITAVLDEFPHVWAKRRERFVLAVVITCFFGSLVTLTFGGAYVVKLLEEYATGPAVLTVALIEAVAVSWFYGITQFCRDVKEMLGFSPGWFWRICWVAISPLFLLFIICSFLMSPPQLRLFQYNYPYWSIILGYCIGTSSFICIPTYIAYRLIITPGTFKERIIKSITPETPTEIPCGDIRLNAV", "experiment": "[3H]5-HT uptake inhibition at the serotonin transporter", "format": "cell-based", "settings": "ratio of uptake Ki, 5-HT vs DA", "source_text": "(§1) These novel ligands have been tested for their binding affinity at the DAT as well as for the inhibition of reuptake of NE, 5-HT, and DA at their specific transporters."}
{"smiles": "COC(=O)C1C2CC3CCC1N3CC2=Cc1ccccc1", "note": "(single isomer, unassigned) [5a]", "5-HT/DA ratio": 2.36}
{"smiles": "COC(=O)C1C2CC3CCC1N3CC2=Cc1ccccc1", "note": "(single isomer, unassigned) [compound 6]", "5-HT/DA ratio": 1.48}
{"smiles": "COC(=O)C1C2CC3CCC1N3CC2=Cc1ccc(Cl)c(Cl)c1", "note": "(stereo not shown) [5b]", "5-HT/DA ratio": 0.01}
{"smiles": "COC(=O)C1C2CC3CCC1N3CC2=Cc1ccc(OC)cc1", "note": "(stereo not shown) [5c]", "5-HT/DA ratio": 0.02}
{"smiles": "COC(=O)C1C2CC3CCC1N3CC2=Cc1ccc(F)cc1", "note": "(stereo not shown) [5d]", "5-HT/DA ratio": 0.05}
{"smiles": "COC(=O)C1C2CC3CCC1N3CC2=Cc1cccc2ccccc12", "note": "(stereo not shown) [5e]", "5-HT/DA ratio": 0.01}
{"smiles": "COC(=O)C1C2CC3CCC1N3CC2=Cc1ccco1", "note": "(stereo not shown) [5f]", "5-HT/DA ratio": 1.82}
{"smiles": "COC(=O)C1C2CC3CCC1N3CC2=Cc1ccoc1", "note": "(stereo not shown) [5g]", "5-HT/DA ratio": 0.26}
{"biological_target": "serotonin transporter (5-HTT) (Homo sapiens, UniProt P31645)", "experiment": "[3H]5-HT uptake inhibition at the serotonin transporter", "format": "cell-based", "settings": "read-out: [3H]5-HT uptake, Ki ± SE", "source_text": "as §1", "units": {"Ki": "nM"}}
{"smiles": "COC(=O)C1C2CC3CCC1N3CC2=Cc1ccccc1", "note": "(single isomer, unassigned) [5a]", "Ki": "1140 ± 70"}
{"smiles": "COC(=O)C1C2CC3CCC1N3CC2=Cc1ccccc1", "note": "(single isomer, unassigned) [compound 6]", "Ki": "7480 ± 250"}
{"smiles": "COC(=O)C1C2CC3CCC1N3CC2=Cc1ccc(Cl)c(Cl)c1", "note": "(stereo not shown) [5b]", "Ki": "19.8 ± 0.5"}
{"smiles": "COC(=O)C1C2CC3CCC1N3CC2=Cc1ccc(OC)cc1", "note": "(stereo not shown) [5c]", "Ki": "55.7 ± 3.8"}
{"smiles": "COC(=O)C1C2CC3CCC1N3CC2=Cc1ccc(F)cc1", "note": "(stereo not shown) [5d]", "Ki": "335 ± 45.5"}
{"smiles": "COC(=O)C1C2CC3CCC1N3CC2=Cc1cccc2ccccc12", "note": "(stereo not shown) [5e]", "Ki": "121 ± 3.4"}
{"smiles": "COC(=O)C1C2CC3CCC1N3CC2=Cc1ccco1", "note": "(stereo not shown) [5f]", "Ki": "3680 ± 190"}
{"smiles": "COC(=O)C1C2CC3CCC1N3CC2=Cc1ccoc1", "note": "(stereo not shown) [5g]", "Ki": "498 ± 65.5"}
{"biological_target": "serotonin transporter (5-HTT) (Homo sapiens, UniProt P31645)", "experiment": "[3H]5-HT uptake inhibition at the serotonin transporter", "format": "cell-based", "settings": "selectivity 5-HTT vs DAT", "source_text": "as §1"}
{"smiles": "COC(=O)C1C2CC3CCC1N3CC2=Cc1ccc(Cl)c(Cl)c1", "note": "(stereo not shown) [5b]", "higher activity at 5-HTT vs. DAT": "about 100 fold"}
{"smiles": "COC(=O)C1C2CC3CCC1N3CC2=Cc1ccc(OC)cc1", "note": "(stereo not shown) [5c]", "higher activity at 5-HTT vs. DAT": "50 fold"}
{"biological_target": "serotonin transporter (5-HTT) (Homo sapiens, UniProt P31645)", "experiment": "[3H]5-HT uptake inhibition at the serotonin transporter", "format": "cell-based", "settings": "selectivity 5-HTT vs NET", "source_text": "as §1"}
{"smiles": "COC(=O)C1C2CC3CCC1N3CC2=Cc1ccc(Cl)c(Cl)c1", "note": "(stereo not shown) [5b]", "higher activity at 5-HTT vs. the NET": "about 50 fold"}
{"biological_target": "norepinephrine transporter (NET) (Homo sapiens, UniProt P23975)", "sequence (P23975 whole entry, species assumed)": "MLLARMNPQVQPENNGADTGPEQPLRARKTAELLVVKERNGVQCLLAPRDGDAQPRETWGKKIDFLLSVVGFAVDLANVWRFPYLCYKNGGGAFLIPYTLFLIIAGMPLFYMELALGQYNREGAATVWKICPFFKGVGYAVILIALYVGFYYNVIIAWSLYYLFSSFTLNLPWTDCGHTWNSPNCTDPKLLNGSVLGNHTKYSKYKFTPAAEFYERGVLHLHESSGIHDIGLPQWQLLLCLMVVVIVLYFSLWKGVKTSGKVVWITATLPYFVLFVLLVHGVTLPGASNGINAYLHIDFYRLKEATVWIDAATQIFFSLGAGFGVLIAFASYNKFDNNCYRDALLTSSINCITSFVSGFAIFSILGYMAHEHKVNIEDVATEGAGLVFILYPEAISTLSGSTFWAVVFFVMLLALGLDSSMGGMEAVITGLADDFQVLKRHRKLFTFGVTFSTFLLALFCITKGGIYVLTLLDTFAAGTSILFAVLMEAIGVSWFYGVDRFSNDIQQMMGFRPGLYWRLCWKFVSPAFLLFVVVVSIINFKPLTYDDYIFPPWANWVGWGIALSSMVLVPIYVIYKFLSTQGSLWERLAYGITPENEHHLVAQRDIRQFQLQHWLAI", "experiment": "[3H]NE uptake inhibition at the norepinephrine transporter", "format": "cell-based", "settings": "NET, 5-HTT and DAT", "source_text": "as §1"}
{"smiles": "COC(=O)C1C2CC3CCC1N3CC2=Cc1ccccc1", "note": "(single isomer, unassigned) [compound 6]", "activity at all three transporters": "only weakly active"}
{"biological_target": "norepinephrine transporter (NET) (Homo sapiens, UniProt P23975)", "experiment": "[3H]NE uptake inhibition at the norepinephrine transporter", "format": "cell-based", "settings": "fluoro substituent, 5d vs. 5a", "source_text": "as §1"}
{"smiles": "COC(=O)C1C2CC3CCC1N3CC2=Cc1ccc(F)cc1", "note": "(stereo not shown) [5d]", "decrease of norepinephrine reuptake activity vs. 5a": "about 10 factor"}
{"biological_target": "norepinephrine transporter (NET) (Homo sapiens, UniProt P23975)", "experiment": "[3H]NE uptake inhibition at the norepinephrine transporter", "format": "cell-based", "settings": "ratio of uptake Ki, NE vs 5-HT", "source_text": "as §1"}
{"smiles": "COC(=O)C1C2CC3CCC1N3CC2=Cc1ccccc1", "note": "(single isomer, unassigned) [5a]", "NE/5-HT ratio": 0.05}
{"smiles": "COC(=O)C1C2CC3CCC1N3CC2=Cc1ccccc1", "note": "(single isomer, unassigned) [compound 6]", "NE/5-HT ratio": 0.2}
{"smiles": "COC(=O)C1C2CC3CCC1N3CC2=Cc1ccc(Cl)c(Cl)c1", "note": "(stereo not shown) [5b]", "NE/5-HT ratio": 50.6}
{"smiles": "COC(=O)C1C2CC3CCC1N3CC2=Cc1ccc(OC)cc1", "note": "(stereo not shown) [5c]", "NE/5-HT ratio": 3.37}
{"smiles": "COC(=O)C1C2CC3CCC1N3CC2=Cc1ccc(F)cc1", "note": "(stereo not shown) [5d]", "NE/5-HT ratio": 1.74}
{"smiles": "COC(=O)C1C2CC3CCC1N3CC2=Cc1cccc2ccccc12", "note": "(stereo not shown) [5e]", "NE/5-HT ratio": 44.5}
{"smiles": "COC(=O)C1C2CC3CCC1N3CC2=Cc1ccco1", "note": "(stereo not shown) [5f]", "NE/5-HT ratio": 0.03}
{"smiles": "COC(=O)C1C2CC3CCC1N3CC2=Cc1ccoc1", "note": "(stereo not shown) [5g]", "NE/5-HT ratio": 0.33}
{"biological_target": "norepinephrine transporter (NET) (Homo sapiens, UniProt P23975)", "experiment": "[3H]NE uptake inhibition at the norepinephrine transporter", "format": "cell-based", "settings": "ratio of uptake Ki, NE vs DA", "source_text": "as §1"}
{"smiles": "COC(=O)C1C2CC3CCC1N3CC2=Cc1ccccc1", "note": "(single isomer, unassigned) [5a]", "NE/DA ratio": 0.11}
{"smiles": "COC(=O)C1C2CC3CCC1N3CC2=Cc1ccccc1", "note": "(single isomer, unassigned) [compound 6]", "NE/DA ratio": 0.3}
{"smiles": "COC(=O)C1C2CC3CCC1N3CC2=Cc1ccc(Cl)c(Cl)c1", "note": "(stereo not shown) [5b]", "NE/DA ratio": 0.52}
{"smiles": "COC(=O)C1C2CC3CCC1N3CC2=Cc1ccc(OC)cc1", "note": "(stereo not shown) [5c]", "NE/DA ratio": 0.06}
{"smiles": "COC(=O)C1C2CC3CCC1N3CC2=Cc1ccc(F)cc1", "note": "(stereo not shown) [5d]", "NE/DA ratio": 0.09}
{"smiles": "COC(=O)C1C2CC3CCC1N3CC2=Cc1cccc2ccccc12", "note": "(stereo not shown) [5e]", "NE/DA ratio": 0.55}
{"smiles": "COC(=O)C1C2CC3CCC1N3CC2=Cc1ccco1", "note": "(stereo not shown) [5f]", "NE/DA ratio": 0.05}
{"smiles": "COC(=O)C1C2CC3CCC1N3CC2=Cc1ccoc1", "note": "(stereo not shown) [5g]", "NE/DA ratio": 0.09}
{"biological_target": "norepinephrine transporter (NET) (Homo sapiens, UniProt P23975)", "experiment": "[3H]NE uptake inhibition at the norepinephrine transporter", "format": "cell-based", "settings": "read-out: [3H]NE uptake, Ki ± SE", "source_text": "as §1", "units": {"Ki": "nM"}}
{"smiles": "COC(=O)C1C2CC3CCC1N3CC2=Cc1ccccc1", "note": "(single isomer, unassigned) [5a]", "Ki": "53 ± 16.1"}
{"smiles": "COC(=O)C1C2CC3CCC1N3CC2=Cc1ccccc1", "note": "(single isomer, unassigned) [compound 6]", "Ki": "1530 ± 150"}
{"smiles": "COC(=O)C1C2CC3CCC1N3CC2=Cc1ccc(Cl)c(Cl)c1", "note": "(stereo not shown) [5b]", "Ki": "1000 ± 280"}
{"smiles": "COC(=O)C1C2CC3CCC1N3CC2=Cc1ccc(OC)cc1", "note": "(stereo not shown) [5c]", "Ki": "187 ± 4.6"}
{"smiles": "COC(=O)C1C2CC3CCC1N3CC2=Cc1ccc(F)cc1", "note": "(stereo not shown) [5d]", "Ki": "584 ± 163"}
{"smiles": "COC(=O)C1C2CC3CCC1N3CC2=Cc1cccc2ccccc12", "note": "(stereo not shown) [5e]", "Ki": "5370 ± 580"}
{"smiles": "COC(=O)C1C2CC3CCC1N3CC2=Cc1ccco1", "note": "(stereo not shown) [5f]", "Ki": "111 ± 12.7"}
{"smiles": "COC(=O)C1C2CC3CCC1N3CC2=Cc1ccoc1", "note": "(stereo not shown) [5g]", "Ki": "164 ± 2.8"}
{"biological_target": "norepinephrine transporter (NET) (Homo sapiens, UniProt P23975)", "experiment": "[3H]NE uptake inhibition at the norepinephrine transporter", "format": "cell-based", "settings": "selectivity NET vs 5-HTT", "source_text": "as §1", "units": {"Ki at the 5-HTT higher than at the NET": "fold"}}
{"smiles": "COC(=O)C1C2CC3CCC1N3CC2=Cc1ccccc1", "note": "(single isomer, unassigned) [5a]", "Ki at the 5-HTT higher than at the NET": 20}
{"biological_target": "norepinephrine transporter (NET) (Homo sapiens, UniProt P23975)", "experiment": "[3H]NE uptake inhibition at the norepinephrine transporter", "format": "cell-based", "settings": "selectivity NET vs DAT", "source_text": "as §1", "units": {"Ki at the DAT higher than at the NET": "fold"}}
{"smiles": "COC(=O)C1C2CC3CCC1N3CC2=Cc1ccccc1", "note": "(single isomer, unassigned) [5a]", "Ki at the DAT higher than at the NET": 9}
{"biological_target": "dopamine transporter (DAT) (Homo sapiens, UniProt Q01959)", "sequence (Q01959 whole entry, species assumed)": "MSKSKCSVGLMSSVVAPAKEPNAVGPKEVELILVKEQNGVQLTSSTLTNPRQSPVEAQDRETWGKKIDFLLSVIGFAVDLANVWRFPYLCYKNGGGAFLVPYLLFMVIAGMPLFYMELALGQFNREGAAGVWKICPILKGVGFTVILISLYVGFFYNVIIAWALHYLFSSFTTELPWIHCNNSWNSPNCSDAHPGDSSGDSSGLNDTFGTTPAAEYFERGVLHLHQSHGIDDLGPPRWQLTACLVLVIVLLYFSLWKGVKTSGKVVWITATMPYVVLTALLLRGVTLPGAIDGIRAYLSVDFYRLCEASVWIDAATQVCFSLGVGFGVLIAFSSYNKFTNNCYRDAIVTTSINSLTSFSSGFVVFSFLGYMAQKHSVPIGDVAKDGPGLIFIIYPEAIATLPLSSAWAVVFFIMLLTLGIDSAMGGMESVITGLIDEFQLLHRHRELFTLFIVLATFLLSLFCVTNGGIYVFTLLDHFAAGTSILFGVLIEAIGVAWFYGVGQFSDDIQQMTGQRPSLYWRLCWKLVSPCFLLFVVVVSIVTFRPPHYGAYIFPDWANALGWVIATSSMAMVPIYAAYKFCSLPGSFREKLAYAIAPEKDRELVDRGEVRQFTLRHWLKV", "experiment": "[3H]DA uptake inhibition at the dopamine transporter", "format": "cell-based", "settings": "read-out: [3H]DA uptake, Ki ± SE", "source_text": "as §1", "units": {"Ki": "nM"}}
{"smiles": "COC(=O)C1C2CC3CCC1N3CC2=Cc1ccccc1", "note": "(single isomer, unassigned) [5a]", "Ki": "481 ± 10.8"}
{"smiles": "COC(=O)C1C2CC3CCC1N3CC2=Cc1ccccc1", "note": "(single isomer, unassigned) [compound 6]", "Ki": "5070 ± 310"}
{"smiles": "COC(=O)C1C2CC3CCC1N3CC2=Cc1ccc(Cl)c(Cl)c1", "note": "(stereo not shown) [5b]", "Ki": "1920 ± 260"}
{"smiles": "COC(=O)C1C2CC3CCC1N3CC2=Cc1ccc(OC)cc1", "note": "(stereo not shown) [5c]", "Ki": "3130 ± 160"}
{"smiles": "COC(=O)C1C2CC3CCC1N3CC2=Cc1ccc(F)cc1", "note": "(stereo not shown) [5d]", "Ki": "6620 ± 460"}
{"smiles": "COC(=O)C1C2CC3CCC1N3CC2=Cc1cccc2ccccc12", "note": "(stereo not shown) [5e]", "Ki": "9720 ± 700"}
{"smiles": "COC(=O)C1C2CC3CCC1N3CC2=Cc1ccco1", "note": "(stereo not shown) [5f]", "Ki": "2020 ± 190"}
{"smiles": "COC(=O)C1C2CC3CCC1N3CC2=Cc1ccoc1", "note": "(stereo not shown) [5g]", "Ki": "1880 ± 10"}
